Laboratory results published in ChEMBL document CHEMBL1152560, “Substituted 2-arylbenzothiazoles as kinase inhibitors: hit-to-lead optimization” (Bioorg Med Chem, 2009).

What was measured:
[1] = biological target: T1, Serine/threonine-protein kinase PLK4 (Homo sapiens) (UniProt O00444); test: Residual activity of SAK at 1 uM by microplate scintillation counting
T1 sequence (whole entry): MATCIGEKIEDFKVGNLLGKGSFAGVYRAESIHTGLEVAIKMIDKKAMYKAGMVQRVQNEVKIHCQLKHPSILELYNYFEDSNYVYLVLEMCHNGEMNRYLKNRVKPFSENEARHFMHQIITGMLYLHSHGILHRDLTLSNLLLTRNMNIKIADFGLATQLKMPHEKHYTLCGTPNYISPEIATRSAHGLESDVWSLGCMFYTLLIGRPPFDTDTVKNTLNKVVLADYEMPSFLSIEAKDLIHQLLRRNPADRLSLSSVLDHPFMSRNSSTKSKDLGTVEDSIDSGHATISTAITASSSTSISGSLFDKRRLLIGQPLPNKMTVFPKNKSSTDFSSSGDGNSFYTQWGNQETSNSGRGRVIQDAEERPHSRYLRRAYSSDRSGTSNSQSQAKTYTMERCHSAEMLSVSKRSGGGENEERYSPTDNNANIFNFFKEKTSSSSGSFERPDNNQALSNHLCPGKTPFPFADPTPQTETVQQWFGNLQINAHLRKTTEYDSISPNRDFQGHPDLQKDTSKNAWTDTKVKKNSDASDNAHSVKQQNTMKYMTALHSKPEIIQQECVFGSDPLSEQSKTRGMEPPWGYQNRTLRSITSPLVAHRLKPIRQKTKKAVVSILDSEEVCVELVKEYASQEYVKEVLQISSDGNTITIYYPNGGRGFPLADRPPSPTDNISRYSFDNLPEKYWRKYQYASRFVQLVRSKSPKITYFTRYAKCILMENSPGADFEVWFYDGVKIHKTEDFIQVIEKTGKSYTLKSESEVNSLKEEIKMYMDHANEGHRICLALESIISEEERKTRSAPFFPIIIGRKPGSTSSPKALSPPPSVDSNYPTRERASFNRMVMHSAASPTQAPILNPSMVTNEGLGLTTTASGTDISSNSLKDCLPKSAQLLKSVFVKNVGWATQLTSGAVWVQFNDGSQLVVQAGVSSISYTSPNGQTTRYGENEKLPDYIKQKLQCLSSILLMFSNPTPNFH

[2] = biological target: Death-associated protein kinase 2 (Homo sapiens) (UniProt Q9UIK4); test: Residual activity of DAPK2 at 0.1 uM by microplate scintillation counting
[3] = biological target: T2, Serine/threonine-protein kinase TBK1 (Homo sapiens) (UniProt Q9UHD2); test: Residual activity of TBK1 at 0.1 uM by microplate scintillation counting
T2 sequence (whole entry): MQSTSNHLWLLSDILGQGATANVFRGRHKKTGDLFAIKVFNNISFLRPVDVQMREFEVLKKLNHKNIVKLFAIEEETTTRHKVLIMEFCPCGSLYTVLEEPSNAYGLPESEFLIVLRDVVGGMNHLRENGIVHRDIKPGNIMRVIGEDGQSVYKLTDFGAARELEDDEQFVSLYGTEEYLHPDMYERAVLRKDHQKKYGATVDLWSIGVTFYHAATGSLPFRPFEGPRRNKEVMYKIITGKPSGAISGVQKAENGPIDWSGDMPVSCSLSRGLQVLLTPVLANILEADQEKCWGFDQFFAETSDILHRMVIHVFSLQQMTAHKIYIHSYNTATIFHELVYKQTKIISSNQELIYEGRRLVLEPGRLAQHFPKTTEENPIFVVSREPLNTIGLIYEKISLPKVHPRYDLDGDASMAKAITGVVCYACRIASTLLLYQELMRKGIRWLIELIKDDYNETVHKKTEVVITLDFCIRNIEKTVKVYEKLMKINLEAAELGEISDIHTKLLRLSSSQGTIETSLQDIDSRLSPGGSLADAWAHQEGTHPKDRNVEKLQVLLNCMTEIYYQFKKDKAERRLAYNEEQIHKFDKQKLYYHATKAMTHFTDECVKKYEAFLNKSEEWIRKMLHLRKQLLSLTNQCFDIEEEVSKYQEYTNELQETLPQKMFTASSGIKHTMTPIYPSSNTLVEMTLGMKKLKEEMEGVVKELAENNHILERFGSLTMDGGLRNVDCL

[4] = biological target: Macrophage colony-stimulating factor 1 receptor (Homo sapiens) (UniProt P07333); test: Residual activity of CSF1R at 0.1 uM by microplate scintillation counting
[5] = biological target: Serine/threonine-protein kinase PAK 2 (Homo sapiens) (UniProt Q13177); test: Residual activity of PAK2 at 1 uM by microplate scintillation counting
[6] = biological target: T3, G protein-coupled receptor kinase 3 (Homo sapiens) (UniProt P35626); test: Residual activity of GRK3 at 1 uM by microplate scintillation counting
T3 sequence (whole entry): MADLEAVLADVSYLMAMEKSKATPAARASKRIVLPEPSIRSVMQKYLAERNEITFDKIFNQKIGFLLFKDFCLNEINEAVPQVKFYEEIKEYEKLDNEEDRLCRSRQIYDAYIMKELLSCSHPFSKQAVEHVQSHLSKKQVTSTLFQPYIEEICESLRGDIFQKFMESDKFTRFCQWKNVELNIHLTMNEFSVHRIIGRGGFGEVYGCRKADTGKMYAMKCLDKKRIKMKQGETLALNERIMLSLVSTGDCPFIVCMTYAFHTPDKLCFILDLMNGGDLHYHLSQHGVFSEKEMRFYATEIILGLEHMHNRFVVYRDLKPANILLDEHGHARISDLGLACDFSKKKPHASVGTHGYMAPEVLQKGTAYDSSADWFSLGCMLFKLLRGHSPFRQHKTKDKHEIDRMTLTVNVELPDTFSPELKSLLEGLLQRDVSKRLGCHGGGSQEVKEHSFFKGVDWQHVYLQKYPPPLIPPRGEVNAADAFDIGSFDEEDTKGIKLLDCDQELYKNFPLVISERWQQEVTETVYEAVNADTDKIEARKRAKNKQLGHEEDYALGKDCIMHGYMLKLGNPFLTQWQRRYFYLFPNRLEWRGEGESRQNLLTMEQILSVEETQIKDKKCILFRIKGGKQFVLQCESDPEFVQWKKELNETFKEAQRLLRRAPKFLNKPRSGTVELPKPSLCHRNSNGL

[7] = biological target: Leukocyte tyrosine kinase receptor (Homo sapiens) (UniProt P29376); test: Residual activity of LTK at 0.1 uM by microplate scintillation counting
[8] = tested on: Epidermal growth factor receptor (Homo sapiens), P00533 [L858R,T790M]; test: Residual activity of EGFR T790M/L858R mutant at 10 uM by microplate scintillation counting

Macrophage colony-stimulating factor 1 receptor (Homo sapiens), sequence (P07333 whole entry): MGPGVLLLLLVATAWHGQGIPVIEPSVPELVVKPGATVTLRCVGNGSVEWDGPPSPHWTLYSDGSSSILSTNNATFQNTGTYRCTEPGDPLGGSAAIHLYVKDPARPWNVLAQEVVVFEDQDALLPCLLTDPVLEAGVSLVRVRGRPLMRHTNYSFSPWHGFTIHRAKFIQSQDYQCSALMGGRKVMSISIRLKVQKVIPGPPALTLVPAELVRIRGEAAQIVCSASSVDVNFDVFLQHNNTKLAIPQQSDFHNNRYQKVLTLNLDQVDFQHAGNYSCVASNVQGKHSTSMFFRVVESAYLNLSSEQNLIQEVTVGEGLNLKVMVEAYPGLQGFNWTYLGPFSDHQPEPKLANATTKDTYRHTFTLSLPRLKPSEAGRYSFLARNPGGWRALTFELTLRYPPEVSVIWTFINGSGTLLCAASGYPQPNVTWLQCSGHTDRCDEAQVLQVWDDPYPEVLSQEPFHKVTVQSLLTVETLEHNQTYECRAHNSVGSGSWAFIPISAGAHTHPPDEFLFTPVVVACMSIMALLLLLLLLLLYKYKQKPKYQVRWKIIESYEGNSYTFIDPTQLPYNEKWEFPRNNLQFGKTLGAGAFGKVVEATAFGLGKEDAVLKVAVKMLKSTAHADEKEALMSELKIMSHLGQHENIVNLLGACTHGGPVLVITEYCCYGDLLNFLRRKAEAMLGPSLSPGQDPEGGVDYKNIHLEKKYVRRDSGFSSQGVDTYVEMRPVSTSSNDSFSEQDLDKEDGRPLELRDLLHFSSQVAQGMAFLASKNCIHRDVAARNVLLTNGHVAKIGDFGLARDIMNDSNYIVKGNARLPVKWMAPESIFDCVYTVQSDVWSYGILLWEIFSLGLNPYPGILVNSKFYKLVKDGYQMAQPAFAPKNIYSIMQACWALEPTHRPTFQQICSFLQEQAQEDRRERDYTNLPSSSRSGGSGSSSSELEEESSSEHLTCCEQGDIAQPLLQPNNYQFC
Serine/threonine-protein kinase PAK 2 (Homo sapiens), sequence (Q13177 whole entry): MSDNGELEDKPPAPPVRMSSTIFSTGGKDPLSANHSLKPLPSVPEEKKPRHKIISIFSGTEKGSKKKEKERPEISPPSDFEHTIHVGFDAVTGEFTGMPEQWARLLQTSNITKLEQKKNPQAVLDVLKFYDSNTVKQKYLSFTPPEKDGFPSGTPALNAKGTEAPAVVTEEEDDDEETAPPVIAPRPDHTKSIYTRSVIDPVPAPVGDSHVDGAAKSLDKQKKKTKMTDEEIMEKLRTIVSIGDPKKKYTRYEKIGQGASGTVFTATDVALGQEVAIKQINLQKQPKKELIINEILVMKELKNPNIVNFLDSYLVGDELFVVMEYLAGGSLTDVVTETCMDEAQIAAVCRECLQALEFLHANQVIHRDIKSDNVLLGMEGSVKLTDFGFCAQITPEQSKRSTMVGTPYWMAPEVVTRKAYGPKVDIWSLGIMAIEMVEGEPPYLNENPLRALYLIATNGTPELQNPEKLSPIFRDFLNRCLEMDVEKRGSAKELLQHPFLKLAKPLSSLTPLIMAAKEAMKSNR
Death-associated protein kinase 2 (Homo sapiens), sequence (Q9UIK4 whole entry, looked up): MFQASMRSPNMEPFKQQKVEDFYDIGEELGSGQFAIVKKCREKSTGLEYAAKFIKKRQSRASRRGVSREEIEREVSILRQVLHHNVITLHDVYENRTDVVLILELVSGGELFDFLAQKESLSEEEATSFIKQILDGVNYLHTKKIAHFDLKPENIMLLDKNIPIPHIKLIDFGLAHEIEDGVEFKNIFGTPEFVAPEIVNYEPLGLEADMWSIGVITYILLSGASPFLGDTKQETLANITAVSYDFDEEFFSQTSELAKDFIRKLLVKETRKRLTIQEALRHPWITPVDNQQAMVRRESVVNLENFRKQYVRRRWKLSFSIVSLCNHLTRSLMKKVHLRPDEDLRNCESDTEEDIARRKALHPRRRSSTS
Leukocyte tyrosine kinase receptor (Homo sapiens), sequence (P29376 whole entry): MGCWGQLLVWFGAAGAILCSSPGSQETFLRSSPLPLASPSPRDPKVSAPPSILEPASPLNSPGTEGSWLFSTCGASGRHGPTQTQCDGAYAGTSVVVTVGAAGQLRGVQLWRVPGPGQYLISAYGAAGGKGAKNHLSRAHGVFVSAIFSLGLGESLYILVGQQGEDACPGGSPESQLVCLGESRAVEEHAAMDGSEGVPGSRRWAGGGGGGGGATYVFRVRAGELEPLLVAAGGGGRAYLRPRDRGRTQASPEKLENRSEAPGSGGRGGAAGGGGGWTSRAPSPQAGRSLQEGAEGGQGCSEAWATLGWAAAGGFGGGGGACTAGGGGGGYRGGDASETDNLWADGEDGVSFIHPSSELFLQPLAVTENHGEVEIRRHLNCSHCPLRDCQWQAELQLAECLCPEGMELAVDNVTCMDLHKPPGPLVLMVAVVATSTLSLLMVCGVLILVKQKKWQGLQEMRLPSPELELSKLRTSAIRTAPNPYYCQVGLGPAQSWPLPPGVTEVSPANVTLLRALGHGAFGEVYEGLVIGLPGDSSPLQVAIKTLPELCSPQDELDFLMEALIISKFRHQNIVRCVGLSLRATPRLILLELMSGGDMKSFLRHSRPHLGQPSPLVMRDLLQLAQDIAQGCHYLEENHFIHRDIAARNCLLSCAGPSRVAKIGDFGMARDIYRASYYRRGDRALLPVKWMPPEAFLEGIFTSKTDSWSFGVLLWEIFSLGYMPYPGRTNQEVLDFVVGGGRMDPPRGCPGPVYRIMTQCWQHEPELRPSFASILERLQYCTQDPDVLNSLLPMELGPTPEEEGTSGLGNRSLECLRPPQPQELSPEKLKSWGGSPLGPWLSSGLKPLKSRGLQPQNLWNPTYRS

Row | Compound | residual activity [1] | residual activity [2] | residual activity [3] | residual activity [4] | residual activity [5] | residual activity [6] | residual activity [7] | residual activity [8]
1 | COc1cc2c(Oc3ccc(-c4nc5ccccc5s4)cc3F)ncnc2cc1OCCCN1CCN(C)CC1 | 26% | 85% | 94% | 88% | 103% | 103% | 101% | 70%
2 | COc1cc2c(Oc3ccc(-c4nc5ccccc5s4)cc3)ncnc2cc1OCCCN1CCCC1 | 19% | 96% | 94% | 120% | 102% | 98% | 99% | 147%
3 | COc1cc2c(Oc3ccc(-c4nc5ccccc5s4)cc3)ncnc2cc1OCCCN1CCN(C)CC1 | 10% | 81% | 79% | 93% | 124% | 102% | 82% | 167%
